Test results reported in article PMC9059126, “Structure-Based Design of a Novel Class of Autotaxin Inhibitors Based on Endogenous Allosteric Modulators” (Journal of Medicinal Chemistry, 2022).
Like-named read-outs stand apart in the source and are kept apart here.

Tests used:
ATX [1] = settings: cited from earlier work
ATX tunnel = system: ATX tunnel; parameters: method as in PMID 27075612; settings: partial non-competitive modulators; cited from earlier work
ATX [2] = target: T1, ATX (Rattus norvegicus, UniProt Q64610); test: Choline oxidase-coupled choline-release assay of LPC hydrolysis by ATX
[3] = system: LPA1-HA-expressing HeLa-Flp-In cells; test: Confocal microscopy for LPA1 internalization; type: cell-based, Human; settings: 1 μM 18:1 LPC, 20 nM ATX, 15 min
Experimental: Human LPA1 cDNA was amplified by PCR to remove its stop codon and add the restriction sites for BamHI and XhoI, after which it was subcloned in an in-house produced pDNA5.1-HA vector. 0.2 μg of the resulting vector and 1.8 μg of pOG44 Flp-Recombinase Expression Vector (Invitrogen) were incubated with 6 μL of Fugene6 (Invitrogen) in 200 μL of OptiMEM (Gibco) for 30 min, after which the mix was added to previously produced HeLa-Flp-In cells.[43] Their medium was refreshed 24 h later, and selection with 1 μg/mL puromycin was started and maintained with resistant cells.
Serum-starved LPA1-HA-expressing HeLa-Flp-In cells cultured on 24 mm (#1,5) were treated with 1 μM LPC and 20 nM ATX in the presence or absence of 22 or 23 for 15 min in DMEM containing 0.05% fatty acid-free BSA. Subsequently, coverslips were washed and fixed with 4% PFA, permeabilized with 0.1% Triton X-100, and blocked with 2% BSA for 1 h. Incubation with anti-HA antibody (3F10 from Roche Diagnostics; 1:200) was done for 1 h, followed by incubation with donkey anti-rat Alexa Fluor 488-conjugated antibody (A-21208 from Invitrogen; 1:200) for 1 h at room temperature. For confocal microscopy, cells were washed with PBS, mounted with Immnuno-MountTM (Thermo Scientific), visualized on a LEICA TCS-SP5 confocal microscope (63× objective), and analyzed using ImageJ software.

BJeH fibroblasts = test: AKT and ERK phosphorylation by western blotting; type: cell-based; settings: Homo sapiens, 0.25 h, 15 min
Experimental: 100,000 BJeH cells were seeded in 12-well tissue culture plates and allowed to grow for 24 h in DMEM (GIBCO, Life Technologies) containing 10% FCS (Thermo Scientific) and 100 U mL^–1 streptomycin/penicillin (GIBCO, Life Technologies). Next, they were washed twice with phosphate-buffered saline (PBS) and serum-starved O/N. ATX 20 nM was incubated with inhibitors for 30 min in a serum-free medium containing 0.05% (w/v) fatty acid-free BSA (total volume 1 mL). The medium from the 12-well plates was removed and replaced with 1 mL of the ATX–inhibitor mixture. Cells were stimulated for 15 min, the medium was removed, and plates were immediately frozen on dry ice and stored at −80 °C. For western blotting, cells were washed with cold PBS; lysed in RIPA buffer; supplemented with protease inhibitors (Pierce), 20 mM NaF and 1 mM orthovanadate; and spun down. The protein concentration was measured using a BCA protein assay kit (Pierce), and LDS sample buffer (NuPAGE, Invitrogen) and 1 mM dithiothreitol were added to the lysate. 20 μg of the total protein was loaded on sodium dodecyl sulfate–polyacrylamide gel electrophoresis pre-cast gradient gels (4–12% Nu-Page Bis-Tris, Invitrogen), followed by transfer to a nitrocellulose membrane. Non-specific protein binding was blocked by 5% BSA in PBS-Tween (0.1%); the primary antibodies were phospho-Akt (Ser473), catalogue number: D93, dilution: 1:1,000; phospho-ERK1/2 (Thr202/Tyr204), catalogue number: D13.14.4E, dilution: 1:2,000, from Cell Signaling Technology. They were incubated O/N at 4 °C in PBS–Tween with 5% BSA, containing 0.1% NaN3. Blots were then incubated for 1 h at room temperature with monoclonal anti-β-actin antibody, clone AC-15, dilution: 1:10,000, from Sigma, which was dissolved in PBS–Tween with 5% skimmed milk containing 0.1% NaN3. HRP-conjugated secondary antibodies [goat anti-mouse (Bio-Rad), catalogue number: 1721011; goat anti-rabbit (Pierce), catalogue number: 1858415] were incubated for 1 h at room temperature in PBS–Tween with 2.5% BSA and developed using an ECL Western blot reagent.

MDA-MB-231 cells = test: Boyden chamber cell migration assay; type: cell-based; settings: migration for 4 h; for EC50: 20 nM ATX, 1 μM 18:1 LPC
Experimental: Migration of MDA-MB-231 cells was performed using 48-well chemotaxis chambers (Neuro Probe, Inc.) equipped with […] pore polycarbonate membranes, which were coated with fibronectin (10 μg/mL) (F1141, Sigma-Aldrich). Cells (2 × 10^6 cells/mL) were added to the upper chamber. 0.05% fatty acid-free BSA was used as a lysophospholipid carrier. Cells were allowed to migrate for 4 h at 37 °C in humidified air containing 5% CO2. Migrated cells were fixed in Diff-Quik Fix and stained using Diff-Quik II. Migration was quantified by color intensity measurements using Photoshop software.

ATX [4] = target: T1, ATX; test: Mechanistic studies: mode of inhibition and Ki from LPC titration; type: biochemical; parameters: made in house
Experimental: The biochemical studies of ATX lysoPLD activity were performed with ATX. Activity was measured by a coupled reaction with 1 U mL^–1 choline oxidase and 2 U mL^–1 horseradish peroxidase (HRP) and 2 mM homovanillic acid (HVA) (all from Sigma-Aldrich). For the assays, 14:0, 16:0, 18:1, and 20:0 LPC (Avanti Polar Lipids Inc.) were incubated with 20 nM ATX, reaching a final volume of 100 μL of the buffer, which contained 50 mM Tris, 0.01%, 50 mM CaCl2, Triton X-100, pH 7.4. Steady-state choline release was measured at 37 °C by HVA fluorescence at λex/λem = 320/460 nm in Corning 96- or 384-well OptiPlate (Sigma-Aldrich) and with a Pherastar plate reader (BMG Labtech). […] The resulting fluorescence intensity signal over time was used to model all inhibitor concentrations simultaneously using the following formula, where vmax and vmin were fitted for the minimum and maximum relative velocities, respectively, and ci corresponds to the inhibitor concentration for each assay[20] [drawing 1] 1
To statistically determine the chance of each type of inhibition, we calculated the α value in the partial mixed inhibition model (eq 5), where Part defines the partiality of the inhibition, and α > 1 or α = 1 correspond to competitive and non-competitive inhibition modes, respectively. Last, we utilized Akaike’s Information Criterion[42] to assess the significance of the analysis [drawing 5] 5

ATX [5] = target: T1, ATX; test: Competition with LPA allostery (LPA-mediated activation of ATX); type: biochemical; parameters: made in house; settings: inhibitor at concentrations close to or lower than IC50; 150 μM 18:1 LPC, 18:1 LPA, 20 nM ATX
Experimental: The activation assays using LPA were performed in a similar way to those done for the inhibitors. In this case, LPA was dissolved in ethanol/H20 (1:1) and 0.01% TX-100 and was added to the reaction buffer. The presence of ethanol was taken into account, and controls in the absence of ATX and/or LPC were employed to correct the kinetic data. ATX was incubated for 30 min with different concentrations of inhibitors and subsequently added to the reaction buffer containing 150 μM 18:1 LPC and different starting concentrations of 18:1 LPA. The slopes were calculated from at least 60 min after the addition of ATX. The percentage of LPA-driven activation was normalized to ATX in the absence of LPA and inhibitors, which represented 100% activity. Last, the activation constant or AC50 was obtained from the following equation [drawing 2] 2

[6] = 14:0 LPC, 150 μM LPC, 20 nM ATX
[7] = 16:0 LPC, 150 μM LPC, 20 nM ATX
[8] = 18:1 LPC, 150 μM LPC, 20 nM ATX
[9] = LPC hydrolysis assay, 20 nM ATX

2-[[2-Ethyl-6-[4-[2-(3-hydroxyazetidin-1-yl)-2-oxoethyl]piperazin-1-yl]-8-methylimidazo[1,2-a]pyridin-3-yl]methylamino]-4-(4-fluorophenyl)thiazole-5-carbonitrile [Compound 3]
IC50 (ATX [1]): 131 nM

C[C@H](CCC(=O)O)[C@H]1CC[C@H]2[C@@H]3[C@@H](O)C[C@@H]4C[C@H](O)CC[C@]4(C)[C@H]3CC[C@]12C [Compound 9, ursodeoxycholic acid, reference compound]
affinity for the ATX tunnel (ATX tunnel): micromolar | IC50 (ATX [2]): 9000 nM

C[C@H](CCC(=O)N1CCC(Oc2ccc(B(O)O)cc2)CC1)[C@H]1CC[C@H]2C3[C@@H](O)C[C@@H]4C[C@H](O)CC[C@]4(C)[C@H]3CC[C@]12C (stereo partly drawn) [Compound 23]
decrease of LPA1 internalization [3]: approximately 75% | EC50 (BJeH fibroblasts; BJeH cells, 20 nM ATX, 1 μM 18:1 LPC, read-out: EC50 (P-AKT and P-ERK levels)): ~60 nM | Emax (BJeH fibroblasts; BJeH, compared to uninhibited ATX incubated with LPC, read-out: reduction of maximal effective cell response (P-AKT and P-ERK)): ~60% | EC50 (MDA-MB-231 cells; Homo sapiens, MDA-MB-231, 4 h): 186 ± 99 nM | EC50 (MDA-MB-231 cells): ~200 nM | reduction of cell migration (MDA-MB-231 cells; ATX + LPC): ~50% | percentage of competitive versus non-competitive inhibition (ATX [4]; Akaike's informative criteria): 99% | mode of inhibition (ATX [4]; LPC hydrolysis): competitive | Ki (ATX [4]; LPC titration at increasing inhibitor concentrations, Michaelis-Menten nonlinear regression): 9 ± 1 nM | α (partial mixed inhibition model) (ATX [4]; α > 1 competitive, α = 1 non-competitive): 8.5 | LPA-mediated activation of ATX activity (ATX [5]): dose-dependent decrease | IC50 (ATX [2]; [6]): 54 nM | Residual Activity (%) (ATX [2]; [6]): 0% | IC50 (ATX [2]; [7]): 34 nM | Residual Activity (%) (ATX [2]; [7]): 12% | IC50 (ATX [2]; [8]): 29 nM | Residual Activity (%) (ATX [2]; [8]): 7% | IC50 (ATX [2]; 20:0 LPC, 150 μM LPC, 20 nM ATX): 33 nM | Residual Activity (%) (ATX [2]; 20:0 LPC, 150 μM LPC, 20 nM ATX, % of catalytic rate of inhibitor-free control): 51% | IC50 (ATX [2]; [9]): 30 nM | Residual Activity (%) (ATX [2]; [9]): 0%
